Results on two molecules are retold here after PMC7765409 (International Journal of Molecular Sciences, 2020).

The test system of one assay is hiPSC-Hep. Description: valid cell count (Hoechst nuclei) in hiPSC-Hep, multiplexed viability readout. The conditions noted are these: Homo sapiens; for IC50: 10-point dose-response, multiplexed with lipid readout. The assay is classed as cell-based. As for the experimental part: To induce hepatic triglycerides (TAG) accumulation, before staining, cells were treated with 20 μL of 2× FA mixture, consisting of different proportions of oleic acid (OA-BSA, 25 µM, Sigma, #O3008), palmitic acid (PA-BSA, 200 µM, Agilent Technologies, #102720100) and thapsigargin (TG, 1 µM, Abcam, #120286) with a total volume of 40 μL/well. The TG/FA mixture was dispensed with BioTek^TM Microflo^TM select dispenser (#7170011, BioTek Instruments) and incubated for 18 h. Next, to label TAG accumulation stored into cytoplasmic lipid droplets, upon treatment, living cells were washed two times with warm Dulbecco’s Phosphate-Buffered Saline 1X (PBS, Corning, #21-031CV) with a handheld 384-channel electronic pipette device and then incubated for 15 min with a lipophilic dye, BODIPY 493/503 (8 ug/mL Life technologies, #D3922-green), in PBS at 37 °C. BODIPY (493/503) has become the standard dye utilized by scientists to study lipid droplets in live cells. After three washes with PBS cells were fixed with 4% paraformaldehyde methanol-free (PFA, Electron Microscopy Science, #15710) in PBS for 15 min at room temperature (RT). Cell health was monitored by Hoechst 33342 (10 ug/mL, Molecular Probe, #H21492) staining in PBS for nuclear count. After TAG staining the 384-assay plates were loaded in an automated confocal microscope with Opera High Content Imaging System (PerkinElmer, Waltham, MA, USA). Dyes were excited and images were captured on the Hoechst 3342 and Alexa Fluor 488 channels and signals were collected with a long pass filter 410 and 505 nm, for nuclei and TAG, respectively, at objective 20× air objective for HCA. To capture enough cells (>600) for the analysis, eight fields per well were imaged. Hoechst 33342 fluorescence was used to identify the nuclear region and cell counts. To assess intracellular fat deposits, BODIPY 493/503 fluorescence intensity was measured inside the cytoplasm region. […]

For another assay, the system named is C/EBPα mRNA expression. Description: RT-qPCR gene expression in TG/FA-treated hiPSC-Hep. The assay is classed as cell-based, human. As to conditions: 24 h pre-treatment then TG/FA 18 h. As for the experimental part:
(§1) To explore the signaling partners triggered or altered by the drugs, we performed gene expression RT-qPCR. The hiPSC-Hep were pre-treated in a 24-well plate with the three compounds shown in Figure 7 for 24 h followed by TG/FA challenge for an additional 18 h and RNA from each treatment well was isolated. The pre-treatment paradigm was chosen to stay consistent with how the original HTS was performed. We analyzed several target gene expression levels in the C/EBP-EP300 pathway including CDK2, CDK4, C/EBPα and C/EBPβ, EP300, and diacylglycerol acyltransferase 2 (DGAT2).
(§2) RNA was isolated from hiPSC-derived hepatocytes using the RNeasy kit (Qiagen, Frederick) and subsequently subjected to DNase digestion (Qiagen). Total RNA was quantified using NanoDrop 8000 (Thermo Scientific). The quality of total RNA was assessed by the Agilent Bioanalyzer Nano chip (Agilent Technologies) and RNA integrity number (RIN) ranged from 9.7 to 10. Reverse transcription was performed using the high capacity cDNA reverse transcription kit (Applied Biosystems, Foster City, CA, USA) according to the manufacturer’s recommendation and the complementary DNA (cDNA) obtained used for real-time quantitative PCR. The reaction mixture (10 μL), containing 1 μL of cDNA template, 0.5 μL each of primer and probe (20×, Thermo Fisher Scientific) mix for the gene of interest plus the reference gene and TaqMan Universal PCR master mix (Applied Biosystems) was added to the opaque white 384-well plates and amplified as follows: after 2 min of initial incubation at 50 °C and 10 min of initial denaturation at 95 °C, 45 cycles at 95 °C for 15 s, 60 °C for 1 min for annealing and 1 sec at 72 °C for final extension were performed. Assays were designed to have primers/probes to span exon–exon junctions (Table S1). Direct detection of PCR products was monitored by measuring the fluorescence produced by the result of TaqMan probe hydrolysis after every cycle. All experiments were carried out in triplicate in a LightCycler 480 thermocycler (Roche Diagnostic). Relative gene expression from qPCR data between groups of samples were assessed using a ∆∆Cq method. To adjust for variations in the cDNA synthesis each gene was normalized to that of hypoxanthine phosphoribosyl transferase 1 (HPRT1] or GAPDH mRNA.

The test system of another assay is C/EBPβ gene expression. Briefly: RT-qPCR gene expression in TG/FA-treated hiPSC-Hep. The conditions noted are these: 24 h pre-treatment then TG/FA 18 h; relative to TG/FA. The assay is classed as cell-based, human. As for the experimental part:
as §1, §2

Another assay concerns DGAT2 mRNA. Description: RT-qPCR gene expression in TG/FA-treated hiPSC-Hep. The assay is classed as cell-based, human. As to conditions: dose-dependent, under condition of hepatic steatosis (TG/FA). As for the experimental part: as §1, §2
The next assay relates to CDK2. Set-up: method as in AstraZeneca data repository. As to conditions: median log of IC50/EC50/Ki/Kd annotations, highest value; ref AstraZeneca data repository; cited from earlier work.
A further assay concerns CDK6. Details: method as in AstraZeneca data repository. The conditions noted are these: median log of IC50/EC50/Ki/Kd annotations, highest value; ref AstraZeneca data repository; cited from earlier work.
For a further assay, the system named is CDK7. Details: method as in AstraZeneca data repository. As to conditions: median log of IC50/EC50/Ki/Kd annotations, highest value; ref AstraZeneca data repository; cited from earlier work.
The next assay deals with CDK14. Set-up: method as in AstraZeneca data repository. As to conditions: median log of IC50/EC50/Ki/Kd annotations, highest value; ref AstraZeneca data repository; cited from earlier work.

`Cc1ncc(-c2nc(Nc3ccc(N4CCN(C(=O)CO)CC4)cc3)ncc2F)n1C(C)C` [C3]: the IC50 in the assay with hiPSC-Hep is > 30 µM. In the assay on C/EBPα mRNA expression (relative to TG/FA), the “effect on C/EBPα mRNA level” value is listed as “no effect”. The “effect on C/EBPβ gene expression” value in the assay with C/EBPβ gene expression is listed as “no effect”. Also, in the assay on DGAT2 mRNA, the “DGAT2 mRNA level decreased by” value was found to be 46%. Moreover, in the assay on CDK2, the “pXC50 CDK2” value was 8.24.

For `CNC(=O)c1nn(C)c2c1C(C)(C)Cc1cnc(Nc3ccc(N4CCN(C)CC4)cc3)nc1-2` [C16, Milciclib], in the assay with hiPSC-Hep, the 50% inhibitory concentration (IC50) stood at 16.6 µM. Besides, the half-maximal effective concentration (EC50) in the assay on hiPSC-Hep (Figure S5 dose-response, read-out: EC50, viable cell count (red line)) stood at 16.6 µM. The “C/EBPα mRNA expression suppressed by” value in the assay with C/EBPα mRNA expression (5 µM) worked out at 47%. The “pXC50 CDK2” value with CDK2 is 7.60. Moreover, the “pXC50 CDK6” value with CDK6 was 7.61. Besides, the “pXC50 CDK7” value in the assay with CDK7 was 7.51. The “pXC50 CDK14” value in the assay on CDK14 was 6.13.
